Data published in patent publication US20130331427A1, “METHODS OF STIMULATING CELLULAR GROWTH, SYNAPTIC, REMODELING AND CONSOLIDATION OF LONG-TERM MEMORY” (Blanchette Rockefeller Neuroscience Institute, priority 2007, published 2013).
Like-named read-outs stand apart in the source and are kept apart here.

How the values were obtained:
Hermissenda Crassicornis = assay: Pavlovian conditioning of Hermissenda, memory retention; format: in vivo
Procedure: Specimens of Hermissenda Crassicornis were maintained in artificial sea water (ASW) at 15° for three days in perforated 50-ml conical centrifuge tubes before starting experiments. […] For selected experiments lactacysteine (10 μM) or anisomycin was added to the ASW.
Pavlovian conditioning of Hermissenda involves repeated pairings of a neutral stimulus, light, with an unconditioned stimulus, orbital shaking. (See, Lederhendler et al. (24) and Epstein et al. (6)). A rotation/shaking stimulus excites the statocyst hair cells and thereby elicits an unconditioned response: a brisk contraction of the muscular undersurface called a foot, accompanied by adherence or “clinging” to the surface that supports the foot. Before conditioning, light elicits a weakly positive phototaxis accompanied by lengthening of the foot. After sufficient light-rotation pairings, light no longer elicits phototaxis, but instead elicits a new response (24): the “clinging” and foot shortening previously elicited only by the unconditional stimulus (FIG. 1). Thus, the meaning of the unconditioned stimulus, rotation or orbital shaking, has been transferred to the conditioned stimulus and is manifested by a light-elicited foot contraction—a negative change of foot length. This conditioned response to light can last for weeks, is not produced by randomized light and rotation, is stimulus-specific, and shares the other defining characteristics of mammalian Pavlovian Conditioning.
Pavlovian conditioning of Hermissenda has well-defined training parameters that produce progressively longer-lasting retention of the learned conditioned response. Two training events (2 TE) of paired light and orbital shaking (see “Methods”), for example, induce a learned conditioned response (light-elicited foot contraction or shortening) that persists without drug treatment for approximately 7 minutes. Four to six training events (4-6 TE) induce a conditioned response that persists up to several hours, but disappears approximately by 1 day after training. Nine TE produces long-term associative memory lasting many days and often up to two weeks.
All animals were tested with the CS alone at 4 h, then at 24-h intervals.

CA1 neurons = assay: acute hippocampal slices, number of dendritic spines (spinophilin); format: cell-based; details: PKC blocker
PKC [1] = details: cited from earlier work
protein kinase C = details: (−)-enantiomer; cited from earlier work
calexcitin = calexcitin immunostaining in Hermissenda B-photoreceptors; format: in vivo
Procedure: Following experimental treatments and testing, animals were rapidly decapitated, the central nervous systems (CNS) removed and then fixed in 4% para-formaldehyde in 20 mM Tris-buffered (pH 8) natural seawater (NSW; 0.2 μm micropore-filtered). The CNSs were then embedded in polyester wax (20), sectioned (6 μm) and immunostained using a biotinylated secondary antibody coupled to avidin-bound microperoxidase (ABC method, Vector), Aminoethylcarbazole (AEC) was used as the chromogen. The primary polyclonal antibody (designated 25U2) was raised in rabbits from the full length calexcitin protein extracted from squid optic lobes. Gray-scale intensity measures were done from digital photomicrographs on circumscribed cytoplasmic areas of the B-photoreceptors minus the same background area (non-staining neuropile).
Micrographs (A, B) depict representative tissue sections from Hermissenda eyes that were immunolabeled with the calexcitin polyclonal antibody, 25U2. […] Differences in staining intensities were measured and recorded as gray-scale intensities (0-256; B-cell cytoplasm minus tissue background).

Rat IGF-IR cells = assay: overall protein synthesis, [35S]methionine incorporation; details: PKC inhibitor also present
Procedure: [^35S]Methionine (9.1 μCi) was then added to the medium followed by analysis of radiolabel.

PKCε = biological target: T1, PKCε (Homo sapiens, UniProt Q02156); details: cited from earlier work
T1 sequence (Q02156 1-737): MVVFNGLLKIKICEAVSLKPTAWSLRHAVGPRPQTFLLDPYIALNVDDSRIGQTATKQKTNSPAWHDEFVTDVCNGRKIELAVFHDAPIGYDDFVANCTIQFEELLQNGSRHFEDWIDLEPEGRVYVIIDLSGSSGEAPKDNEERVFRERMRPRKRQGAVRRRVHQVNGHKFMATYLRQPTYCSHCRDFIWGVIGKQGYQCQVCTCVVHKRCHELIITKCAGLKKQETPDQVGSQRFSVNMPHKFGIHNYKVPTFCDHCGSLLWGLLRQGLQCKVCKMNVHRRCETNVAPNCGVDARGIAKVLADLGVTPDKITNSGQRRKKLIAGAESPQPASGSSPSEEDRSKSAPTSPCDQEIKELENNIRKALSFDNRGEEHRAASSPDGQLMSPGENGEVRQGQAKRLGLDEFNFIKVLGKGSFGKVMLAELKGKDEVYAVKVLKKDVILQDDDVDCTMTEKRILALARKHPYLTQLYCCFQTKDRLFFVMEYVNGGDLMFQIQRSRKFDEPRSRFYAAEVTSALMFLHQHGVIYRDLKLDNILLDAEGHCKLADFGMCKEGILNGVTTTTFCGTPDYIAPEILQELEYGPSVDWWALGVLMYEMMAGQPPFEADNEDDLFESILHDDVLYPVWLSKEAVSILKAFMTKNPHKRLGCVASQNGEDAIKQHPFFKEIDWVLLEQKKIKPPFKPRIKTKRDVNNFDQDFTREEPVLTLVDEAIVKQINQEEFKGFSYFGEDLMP

NCI 60 cell line screen = details: cited from earlier work
PKC [2] = assay: PKC affinity of bryostatin and bryologs; format: binding
Text: Structurally, they are all similar.

[3] = test system: murine leukemias and solid tumors; details: cited from earlier work
PKC [4] = details: K562 cells; cited from earlier work
[5] = test system: cyclin dependent kinase 2 (Cdk2); details: at 5 ng/ml; cited from earlier work
[6] = test system: squamous cell carcinoma and melanoma; details: used topically; cited from earlier work
sAPP secretion = details: control and AD fibroblasts; cited from earlier work
[7] = 2000 IU/day; cited from earlier work
PKC [8] = details: [3H]phorbol dibutyrate competition; read-out: Ki for binding; cited from earlier work
PKC [9] = assay: PKC activity (histone phosphorylation) in Hermissenda nervous systems; format: in vivo; details: anisomycin 1.0 ng/ml with each bryostatin 0.25 ng/ml exposure, three successive days
Procedure: Cells were homogenized by sonication (5 sec, 25 W) in 100 μl of 100 mM Tris-HCL pH 7.4 buffer containing 1 mM EGTA, 1 mM PMSF, and 50 mM NaF. Homogenate was transferred to a polyallomer centrifuge tube and was centrifuged at 100,000×g for 10 min at 4°. The supernatant was removed and immediately frozen on dry ice. The particulate fraction was resuspended by sonication in 100 μl of the same buffer and stored at −80°. To measure PKC, 10 μl of cytosol or particulate fraction was incubated for 15 min at 37° in the presence of 10 μM histones, 4.89 mM CaCl2, 1.2 μg/μl phosphatidyl-L-serine, 0.18 μg/μl 1.2-dioctanoyl-sn-glycerol, 10 mM MgCl2, 20 mM HEPES (pH 7.4), 0-8 mM EDTA, 4 mM EGTA, 4% glycerol, 8 μg/ml aprotinin, 8 μg/ml leupeptin, and 2 mM benzamidine. 0.5 μCi [γ^32-P]ATP was added and ^32P-phosphoprotein formation was measured by adsorption onto phosphocellulose as described previously (25). This assay was used with slight adjustments for either Hermissenda nervous system homogenates or cultured mammalian neuron homogenates.
Histone phosphorylation (See “Methods”) in isolated circumesophageal nervous systems was then measured in the cytosol fraction. […] (FIG. 12, 13).

[10] = A-ring bryologs, read-out: affinity for PKC

CC(=O)N[C@@H](CSC(=O)[C@]1([C@@H](O)C(C)C)NC(=O)[C@H](C)[C@@H]1O)C(=O)O [Lactacysteine]
acquisition or retention of behavioral training (Hermissenda Crassicornis; lactacysteine 10 μM alone for 4 h, 2-paired TEs 24 hrs later): no acquisition or retention of behavioral training
memory after single bryostatin exposure followed by 2 TE (Hermissenda Crassicornis; lactacysteine 10 μM together with bryostatin 0.25 ng/ml for 4 h): long-term memory lasting many days

Cn1cc(C2=C(c3cn(CCCSC(=N)N)c4ccccc34)C(=O)NC2=O)c2ccccc21 [RO-31-8220]
effect on bryostatin-induced ELAV transport and spine increase (CA1 neurons): suppressed

CCCCCCCC(=O)OC1C(=CC(=O)OC)CC2CC(CO)OC(=O)CC(O)CCOC(c3ccccc3)CC3CCOC(C=CC(C)(C)C1(O)O2)O3 (stereo not drawn) [bryolog 4]
Ki (PKC [1]; [10]): 2.3 nM

CCCCCCCCc1ccc2c3c(c[nH]c13)C[C@@H](CO)NC(=O)[C@H](C(C)C)N2C [octylindolactam V, Octylindolactam V]
EC50 (protein kinase C): 29 nM

CN(C)C[C@H]1CCn2c(c(C3=C(c4cn(C)c5ccccc45)C(=O)NC3=O)c3ccccc32)C1 [Ro-32]
effect on long-term memory induction (Hermissenda Crassicornis; Ro-32 immediately after bryostatin plus training): did not prevent long-term memory induction
effect on 6 TE plus bryostatin (Hermissenda Crassicornis; applied pre-training during dark adaptation): blocked
effect on learning-specific calexcitin increases in the Type B cell (calexcitin; in vivo): prevented
effect on bryostatin-induced increase of protein synthesis (Rat IGF-IR cells): partially blocked
effect on bryostatin-induced increase of protein synthesis (Rat IGF-IR cells; listed as Ro-32-0432): increasing significantly less

CCCCCCCC(=O)O[C@H]1/C(=C/C(=O)OC)C[C@H]2C[C@H](CO)OC(=O)C[C@H](O)CCOCC[C@@H]3CCO[C@H](/C=C/C(C)(C)[C@]1(O)O2)O3 [Analog 2]
affinity for PKC, in words (PKC [1]): maintains high affinity for PKC
Ki (PKC [1]; read-out: PKC Affin): 6.5 nM

CCCCCC1CC1CC1CC1CCCCCCCC(=O)O (stereo not drawn) [DCP-LA, 2-[(2-pentylcyclopropyl)methyl]cyclopropaneoctanoic acid]
concentration of maximal effect on PKCε (PKCε): 100 nM

CC1=CC[C@H](C)C(C)(C)[C@@H]1/C=C/C(C)=C/CC[C@@]1(CO)[C@H](CCCO)/C(=C(/C)C=O)CC[C@]1(C)O [Iripallidal]
GI50 (concentration required to inhibit growth by 50%) (NCI 60 cell line screen): from micromolar to nanomolar range

CCCCCCCC(=O)O[C@H]1/C(=C/C(=O)OC)C[C@H]2C[C@H](CO)OC(=O)C[C@H](O)C[C@@H]3CCC[C@H](C[C@@H]4CCO[C@H](/C=C/C(C)(C)[C@]1(O)O2)O4)O3 [Analog 1]
potency relative to bryostatin-1 (PKC [2]): about 100 times
affinity for PKC, in words (PKC [1]): highest affinity for PKC
Ki (PKC [1]; read-out: PKC Affin): 0.25 nM

CCCCCCCC(=O)OC1C(=CC(=O)OC)CC2CC(CO)OC(=O)CC(O)CCOC(C(C)(C)C)CC3CCOC(C=CC(C)(C)C1(O)O2)O3 (stereo not drawn) [bryolog 3]
Ki (PKC [1]; [10]): 6.5 nM

C=C(C)[C@]12C[C@@H](COC(=O)c3ccccc3)[C@@]34OC5(O[C@@H]1[C@@H]3C1O[C@]1(CO)[C@@H](O)[C@@]1(O)[C@H]4[C@@H](C(C)CCCCCC[C@@H]5O)C(C)[C@@H]1OC(=O)c1ccccc1)O2 (stereo partly drawn) [Gnidimacrin]
concentrations displaying potent antitumor activity [3]: 0.1 to 1 nM
concentration at which it acts as a PKC activator (PKC [4]): 0.3 nM
inhibition of Cdk2 [5]: 100%

COc1ccc2c(c[n+](C)c3c4cc5c(cc4ccc23)OCO5)c1OC [chelerythrine]
effect on bryostatin-induced ELAV transport and spine increase (CA1 neurons): suppressed

C/C=C(/C)C(=O)O[C@H]1C(C)=C[C@]23C(=O)[C@@H](C=C(CO)[C@@H](O)[C@]12O)[C@H]1[C@@H](C[C@H]3C)C1(C)C [Ingenol-3-angelate]
antitumor activity [6]: possesses antitumor activity

CN[C@@H]1C[C@H]2O[C@@](C)([C@@H]1OC)n1c3ccccc3c3c4c(c5c6ccccc6n2c5c31)C(=O)NC4 [staurosporine]
effect on benzolactam-induced sAPP secretion (sAPP secretion): eliminated the effects of benzolactam

vitamin E
cognitive abilities [7]: did not enhance cognitive abilities
mortality and morbidity [7]: reduced mortality and morbidity

CC1=C[C@]23C(=O)[C@@H](C=C(COC(=O)c4ccccc4)[C@@H](O)[C@]2(O)[C@H]1OC(=O)c1ccccc1)[C@H]1[C@@H](C[C@H]3C)C1(C)C [Ingenol 3,20-dibenzoate]
Ki (PKC [8]): 240 nM

COc1ccc(C[C@H]2NC[C@H](O)[C@H]2OC(C)=O)cc1 [anisomycin]
effect on memory retention produced by 9 TE (Hermissenda Crassicornis; 4 hour anisomycin treatment, no bryostatin): eliminated all memory retention
effect on memory from single 4 hour bryostatin exposure with 2 TE (Hermissenda Crassicornis; anisomycin 1.0 μg/ml): entirely eliminated
effect on long-term retention after three-day bryostatin treatments (Hermissenda Crassicornis; anisomycin 1 μg/ml for four hours post-training, 2-TEs): did not prevent long-term retention
effect on calexcitin level (calexcitin; anisomycin immediately after 2-paired TEs, 3 days of 4-hr bryostatin): did not reduce
effect on PKC activity, cytosolic and membrane fractions (PKC [9]): markedly reduced

CCCCCCCC(=O)OC1C(=CC(=O)OC)CC2CC(CO)OC(=O)CC(O)CCOC(CCCc3ccc(Br)cc3)CC3CCOC(C=CC(C)(C)C1(O)O2)O3 (stereo not drawn) [bryolog 5]
Ki (PKC [1]; [10]): 1.9 nM
